Structures can show the parent of a compound that is named as a salt.
Legend:
P. aeruginosa ATCC 27853 = assay: In vitro MIC, agar dilution; assay type: cell-based; conditions: Pseudomonas aeruginosa, ATCC27853, read-out: minimum inhibitory concentration (MIC)
Protocol: (§1) The compounds of the invention were evaluated against several β-lactamresistant (for example methicillin-resistant, vancomycin resistant, and/or ampicillin-resistant) bacteria strains by determining the minimum inhibitory concentration (MIC, μg/ml) of each compound with respect to each strain. The MIC, the lowest concentration of antibiotic which inhibits growth of the test organism, was determined by the agar dilution method.
(§2) To determine the MIC for bacterial isolates, the test compound was incorporated in a series of two-fold dilutions into liquified Mueller-Hinton agar. Upon solidification, a number of different bacterial strains were spot inoculated with a replicating device onto the agar surface.
(§3) Aliquots of antimicrobial agents were prepared in phosphate buffered saline (PBS) at pH 7.2. Tween 20 or DMSO was used as a solubilizing vehicle as needed. Standard methods of vortexing, sonicating and gentle heat were used to facilitate solubilizing the test agent. […] A 1.28 mg/mL stock solution was used with a subsequent highest working concentration of 128 μg/mL. Serial two-fold dilutions were done through ≤0.25 μg/mL. Each drug level was tested in duplicate. Two-fold drug dilutions were done in sterile 50 mL tubes with a final drug volume of 5 mL. Upon the addition of 45 mL of molten agar, a 10-fold dilution resulted. Two, 25 mL. plates were then poured into 15×150 mm square Petri plates with grids and allowed to harden.
(§4) A control plate with a reference drug, either cefotaxime, vancomycin or imipenem, was used as the positive growth control. Stock concentrations of reference antibiotics were prepared and frozen at -80° C. […] All test plates were used within 24 hours of preparation.
(§5) Satisfactory results were obtained where the inoculum contained about 10^4 colony forming units (cfu)±0.5 logs. Starting with pure cultures of the test isolates on agar plates, a few isolated colonies were transferred to a tube of nutrient broth and allowed to grow 4-6 hours at 35-36° C. to reach log-phase growth. Dropwise addition of the broth culture to PBS was done to match a 0.5 McFarland turbidity standard equal to 10^8 cfu/mL. This was further diluted ten-fold in PBS to reach a working inoculum concentration of 10^7 cfu/mL. When 1 μL of the working inoculum was applied to the agar surface a concentration of about 10^4 cfu per spot was obtained.
(§6) Disposable sterile 1 μL loops were used to inoculate test plates, with each isolate in a designated grid on the agar plate. An alternate method of inoculation involved the use of a replica plater, a device with 48 steel pins allowing the simultaneous inoculation of multiple isolates. After the spots had dried, the plates were incubated at 35-36° C. for 16-20 hours. Endpoints were assessed as the minimum inhibitory concentration (MIC) of antimicrobial agent.

E. faecalis VanB(Van^R) = assay: In vitro MIC, agar dilution; assay type: cell-based; conditions: Enterococcus faecalis, read-out: minimum inhibitory concentration (MIC)
Protocol: as §1, §2, §3, §4, §5, §6

[1] = tested on: S. aureus ATCC 33593(Meth^R); assay: In vitro MIC, agar dilution; assay type: cell-based; conditions: Staphylococcus aureus, ATCC33593, read-out: minimum inhibitory concentration (MIC)
Protocol: as §1, §2, §3, §4, §5, §6

[2] = tested on: S. haemolyticus 05(Meth^R); assay: In vitro MIC, agar dilution; assay type: cell-based; conditions: Staphylococcus haemolyticus, read-out: minimum inhibitory concentration (MIC)
Protocol: as §1, §2, §3, §4, §5, §6

[3] = tested on: S. aureus Spain #356(Meth^R); assay: In vitro MIC, agar dilution; assay type: cell-based; conditions: Staphylococcus aureus, read-out: minimum inhibitory concentration (MIC)
Protocol: as §1, §2, §3, §4, §5, §6

[4] = tested on: S. aureus 76(Meth^R)(lac^+); assay: In vitro MIC, agar dilution; assay type: cell-based; conditions: Staphylococcus aureus, read-out: minimum inhibitory concentration (MIC)
Protocol: as §1, §2, §3, §4, §5, §6

S. aureus ATCC 29213 = assay: In vitro MIC, agar dilution; assay type: cell-based; conditions: Staphylococcus aureus, ATCC29213, read-out: minimum inhibitory concentration (MIC)
Protocol: as §1, §2, §3, §4, §5, §6

[5] = tested on: S. aureus PC1(Meth^S)(lac^+); assay: In vitro MIC, agar dilution; assay type: cell-based; conditions: Staphylococcus aureus, read-out: minimum inhibitory concentration (MIC)
Protocol: as §1, §2, §3, §4, §5, §6

E. faecalis ATCC 29212 = assay: In vitro MIC, agar dilution; assay type: cell-based; conditions: Enterococcus faecalis, ATCC29212, read-out: minimum inhibitory concentration (MIC)
Protocol: as §1, §2, §3, §4, §5, §6

E. faecium A491(Amp^R) = assay: In vitro MIC, agar dilution; assay type: cell-based; conditions: Enterococcus faecium, read-out: minimum inhibitory concentration (MIC)
Protocol: as §1, §2, §3, §4, §5, §6

E. coli ATCC 25992 = assay: In vitro MIC, agar dilution; assay type: cell-based; conditions: Escherichia coli, ATCC25992, read-out: minimum inhibitory concentration (MIC)
Protocol: as §1, §2, §3, §4, §5, §6

[6] = tested on: S. aureus ATCC 13709(Meth^S); assay: In vitro MIC, agar dilution; assay type: cell-based; conditions: Staphylococcus aureus, ATCC13709, S. aureus ATCC 13709(Meth^S); read-out: minimum inhibitory concentration (MIC)
Protocol: as §1, §2, §3, §4, §5, §6

E. faecium VanA(Van^R) = assay: In vitro MIC, agar dilution; assay type: cell-based; conditions: Enterococcus faecium, read-out: minimum inhibitory concentration (MIC)
Protocol: as §1, §2, §3, §4, §5, §6

E. faecium ATCC 35667 = assay: In vitro MIC, agar dilution; assay type: cell-based; conditions: Enterococcus faecium, ATCC35667, read-out: minimum inhibitory concentration (MIC)
Protocol: as §1, §2, §3, §4, §5, §6

[7] = tested on: S. aureus Col(Meth^R)(lac^-); assay: In vitro MIC, agar dilution; assay type: cell-based; conditions: Staphylococcus aureus, read-out: minimum inhibitory concentration (MIC)
Protocol: as §1, §2, §3, §4, §5, §6
The S. aureus Col strain is a high-level PBP2a producer, whereas S. aureus Col 8A, its isogenic partner, lacks PBP2a.

[8] = tested on: S. aureus strain ATCC 13709 (methicillin-susceptible); assay: Murine model for lethal bacteremic peritonitis; assay type: in vivo, female Swiss-Webster mice; conditions: Staphylococcus aureus, ATCC13709, SC, 72 h; for responders at 1.25 mg/kg: read-out: Survivors (converted); for ED50: two equal doses, IP challenge, read-out: ED50
Protocol: Groups of 5 female Swiss-Webster mice (Simonsen, Gilroy, Calif.) each are challenged by the intraperitoneal (IP) route with tenfold increments of a bacterial inoculum. This permits calculation of the mean lethal dose (LD50) and the LD100. For preliminary evaluation of a new antibiotic, mice are challenged IP with an LD100 titer of bacteria. In two equal doses administered at the time of bacterial challenge and 2 hours later, groups of 10 mice each are treated subcutaneously with two-fold increments of the test drug and an antibiotic of known efficacy in mice and humans (i.e., positive control). Mice are observed for 72 h. Those alive at 72 h are considered long term survivors. The total drug dose in mg/kg that protects 50% of mice in a group from death is termed the mean protective dose (PD50). PD50 s are similarly determined for several pathogens. The quantitative endpoints for the new drug are then compared with those obtained with reference antibiotics.
Six ten-fold dilutions of inoculum suspended in 0.5 mL of sterilized 7% hog gastric mucin (Sigma) are injected IP in groups of 5 mice each. A control group of 5 mice receive mucin alone. Mice are observed for 72 h. Those alive at 72 h are considered long term survivors. The mean lethal dose (LD50) and 100% lethal dose (LD100) are determined by the probit test.
For antibiotic efficacy studies, mice are challenged IP with bacterial titers that will afford an LD100 for the test strain. In two equal doses administered at the time of bacterial challenge and 2 hours later, groups of 10 mice each are treated by the subcutaneous route (SC) with twofold increments of the test antibiotic; another group is treated similarly with a reference antibiotic of known efficacy in animals and man. Drug doses can range from 0.01 to 512 mg/kg. If the drug is poorly soluble, Tween 20 or propylene glycol will be employed to solubilize the drug. Animals are observed for 72 h. The 50% protective dose (PD50) is calculated in mg/kg by the probit method. The PD50 is the same as the 50% effective dose (ED50) and the 50% curative dose (CD50). Samples of blood from the hearts of all animals that die and from half the mice that survive are cultured on brain-heart infusion agar. Animals that received a protective dosage of the test drug will be alive at 72 h, although they may appear moderately ill to very ill during the observation period. […] Most of these mice will die within 6 to 48 h. Those alive at 72 h will be considered long term survivors.
(Compound numbers correspond to those in MIC tables; data reported for challenge with methicillin-susceptible S. aureus strain ATCC 13709.)

Structure (SMILES)	MIC (P. aeruginosa ATCC 27853) [µg/mL]	MIC (E. faecalis VanB(Van^R)) [µg/mL]	MIC [1] [µg/mL]	MIC [2] [µg/mL]	MIC [3] [µg/mL]	MIC [4] [µg/mL]	MIC (S. aureus ATCC 29213) [µg/mL]	MIC [5] [µg/mL]	MIC (E. faecalis ATCC 29212) [µg/mL]	MIC (E. faecium A491(Amp^R)) [µg/mL]	MIC (E. coli ATCC 25992) [µg/mL]	MIC [6] [µg/mL]	MIC (E. faecium VanA(Van^R)) [µg/mL]	MIC (E. faecium ATCC 35667) [µg/mL]	MIC [7] [µg/mL]	responders at 0.156 mg/kg ([8]; read-out: Survivors) [%]	responders at 0.3125 mg/kg ([8]; read-out: Survivors) [%]	responders at 0.625 mg/kg ([8]; read-out: Survivors) [%]	responders at 1.25 mg/kg [8] [%]	ED50 [8] [mg/kg]	also measured
N=C(N)SCc1cnccc1SC1=C(C(=O)O)N2C(=O)[C@@H](NC(=O)/C(=N\O)c3csc(N)n3)[C@H]2SC1 [Cmpd 3, (7R)-7-[(Z)-2-(aminothiazol-4-yl)-2-(hydroxyimino)acetamido]-3-(3-isothioureidomethylpyrid-4-ylthio)-3-cephem-4-carboxylate, trifluoroacetic acid salt]	> 32	1	8	8	8	8	0.5	0.5	0.5	> 32	2	0.5	8	2	8	0	50	80	70	0.42	responders at 2.5 mg/kg ([8]; Dose 2.5 mg/kg, read-out: Survivors): 90%
NCCSCc1cnccc1SC1=C(C(=O)O)N2C(=O)[C@@H](NC(=O)/C(=N\O)c3csc(N)n3)[C@H]2SC1 [Cmpd 10, (7R)-7-[(Z)-2-(aminothiazol-4-yl)-2-(hydroxyimino)acetamido]-3-(3-aminoethylthiomethylpyrid-4-ylthio)-3-cephem-4-carboxylate, trifluoroacetic acid salt]	> 32	1	2	4	2	2	0.5	0.5	0.5	> 32	4	0.5	4	2	2	20	20	80	100	1.29	responders at 0.078 mg/kg ([8]; Dose 0.078 mg/kg, read-out: Survivors): 20%
N=C(N)SCc1cnccc1SC1=C(C(=O)O)N2C(=O)[C@@H](NC(=O)/C(=N\O)c3nc(N)sc3Cl)[C@H]2SC1 [Cmpd 60, (7R)-7-[(Z)-2-(2-amino-5-chlorothiazol-4-yl)-2-(hydroxyimino)acetamido]-3-(3-isothioureidomethylpyrid-4-ylthio)-3-cephem-4-carboxylate, trifluoroacetic acid salt]	> 32	0.25	2	4	2	1	0.25	0.25	0.5	16	8	0.13	2	1	2						
CN(C)C(=O)CNCCSCc1cnccc1SC1=C(C(=O)O)N2C(=O)[C@@H](NC(=O)/C(=N\O)c3nc(N)sc3Cl)[C@H]2SC1 [Cmpd 61, (7R)-7-[(Z)-2-(2-amino-5-chlorothiazol-4-yl)-2-(hydroxyimino)acetamido]-3-(3-(N,N-dimethylcarboxamidomethylaminoethylthiomethyl)pyrid-4-ylthio)-3-cephem-4-carboxylate, trifluoroacetic acid salt]	> 32	0.25	4	8	4	4	1	1	0.25	16	16	1	2	1	4						
CC(C)(N)CSCc1cnccc1SC1=C(C(=O)O)N2C(=O)[C@@H](NC(=O)/C(=N\O)c3nc(N)sc3Cl)[C@H]2SC1 [Cmpd 62, (7R)-7-[(Z)-2-(2-amino-5-chlorothiazol-4-yl)-2-(hydroxyimino)acetamido]-3-(3-(2-amino-2-methylpropylthiomethyl)pyrid-4-ylthio)-3-cephem-4-carboxylate, trifluoroacetic acid salt]	> 32	0.25	4	4	4	4	0.5	0.5	0.13	16	8	0.5	2	1	4						

— patent US6087355A, “Cephalosporin antibiotics” (Microcide Pharmaceuticals, Inc., priority 1996, dated 2000)
